# Reference: patent US9834566B2, “Pyrazolopyrimidine macrocycles as inhibitors of human immunodeficiency virus replication” (priority 2014, dated 2017)
# Where two headings read alike, the source gives them in different places.
# Assays:
# [1] = tested on: recombinant NL-RLuc virus (NL4-3 with Renilla Luciferase gene); test: Inhibition of HIV replication (NL-RLuc luciferase reporter virus in MT-2 cells); format: cell-based; conditions: NL43, 120 h
# Excerpt: Inhibition of HIV Replication:
# A recombinant NL-RLuc proviral clone was constructed in which a section of the nef gene from NL4-3 was replaced with the Renilla Luciferase gene. This virus is fully infectious and can undergo multiple cycles of replication in cell culture. In addition, the luciferous reporter provides a simple and easy method for quantitating the extent of virus growth and consequently, the antiviral activity of test compounds. The plasmid pNLRLuc contains the proviral NL-Rluc DNA cloned into pUC18 at the PvuII site. The NL-RLuc virus was prepared by transfection of 293T cells with the plasmid pNLRLuc. Transfections were performed using the LipofectAMINE PLUS kit from Invitrogen (Carlsbad, Calif.) according to the manufacturer and the virus generated was titered in MT-2 cells. For susceptibility analyses, the titrated virus was used to infect MT-2 cells in the presence of compound, and after 5 days of incubation, cells were processed and quantitated for virus growth by the amount of expressed luciferase. Assay media was RPMI 1640 supplemented with 10% heat inactivated fetal bovine serum (FBS), 100 units/ml penicillin G/100 units/ml streptomycin, 10 mM HEPES buffer pH 7.55 and 2 mM L-glutamine. The results from at least 2 experiments were used to calculate the EC50 values. Luciferase was quantitated using the Dual Luciferase kit from Promega (Madison, Wis.). Susceptibility of viruses to compounds was determined by incubation in the presence of serial dilutions of the compound. The 50% effective concentration (EC50) was calculated by using the exponential form of the median effect equation where (Fa)=1/[1+(ED50/drug conc.)^m] (Johnson V A, Byington R T. Infectivity Assay. In Techniques in HIV Research. ed. Aldovini A, Walker B D. 71-76. New York: Stockton Press. 1990).
SMILES,"ring closure, yield of all isomers (from C=CCOC1(C)CCN(c2c([C@H](OC(C)(C)C)C(=O)OCC)c(C)nc3cc(-c4cccc(-c5cc(C(=O)OC)ccc5O[C@@H](C)CC=C)c4)nn23)CC1, rcm bond, Hoveyda-Grubbs II (with CuI), DCE, 1.52 mM, 80.0 °C, 3.0 h)",EC50 [1],"ring closure, yield of all isomers (from COC(=O)[C@@H](OC(C)(C)C)c1c(C)nc2cc(-c3cccc(-c4ccc(F)cc4OCc4cccc(CBr)c4)c3)nn2c1-c1ccc2c(c1)C(O)CCO2, ether bond, NaH, THF, 2.77 mM, 25.0 °C, 5.0 h, 2 steps)"
CCOC(=O)[C@@H](OC(C)(C)C)c1c(C)nc2cc3nn2c1N1CCC(C)(CC1)OCC=CC[C@H](C)Oc1ccc(C(=O)OC)cc1-c1cccc-3c1,83%,–,–
"Cc1ccc2cc1OCc1cccc(c1)COc1cc(F)ccc1-c1cccc(c1)-c1cc3nc(C)c([C@H](OC(C)(C)C)C(=O)O)c-2n3n1 [Example 15, (2S)-2-(tert-Butoxy)-2-{26-fluoro-7,13-dimethyl-15,23-dioxa-3,4,6-triazaheptacyclo [28.3.1.1^2,^5.1^10,^14.1^17,^21.0^4,^9.0^24,^29]heptatriaconta-1(34),2,5(37),6,8,10,12,14(36), 17(35),18,20,24(29),25,27,30,32-hexadecaen-8-yl}acetic acid]",–,301 nM,–
"Cc1ccc2cc1OCCCCCCOc1cc(F)ccc1-c1cccc(c1)-c1cc3nc(C)c([C@H](OC(C)(C)C)C(=O)O)c-2n3n1 [Example 16, (2S)-2-(tert-Butoxy)-2-{25-fluoro-7,13-dimethyl-15,22-dioxa-3,4,6-triazahexacyclo [27.3.1.1^2,^5.1^10,^14.0^4,^9.0^23,^28]pentatriaconta-1(33),2,5(35),6,8,10,12,14(34), 23(28),24,26,29,31-tridecaen-8-yl}acetic acid]",–,780 nM,–
"Cc1ccc2cc1OCCOCCOc1cc(F)ccc1-c1cccc(c1)-c1cc3nc(C)c([C@H](OC(C)(C)C)C(=O)O)c-2n3n1 [Example 17, (2S)-2-(tert-Butoxy)-2-{24-fluoro-7,13-dimethyl-15,18,21-trioxa-3,4,6-triazahexacyclo [26.3.1.1^2,^5.1^10,^14.0^4,^9.0^22,^27]tetratriaconta-1(32),2,5(34),6,8,10,12,14(33), 22(27),23,25,28,30-tridecaen-8-yl}acetic acid]",–,289 nM,–
"Cc1ccc2cc1OCCN(Cc1ccccc1)CCOc1cc(F)ccc1-c1cccc(c1)-c1cc3nc(C)c([C@H](OC(C)(C)C)C(=O)O)c-2n3n1 [Example 18, (2S)-2-(tert-Butoxy)-2-{18-fluoro-4-methyl-21,29,33-trioxa-5,7,8-triazaoctacyclo [28.6.2.1^6,^9.1^10,^14.1^23,^27.0^2,^7.0^15,^20.0^34,^38]hentetraconta-1(36),2,4,6(41),8,10(40),11,13, 15(20),16,18,23,25,27(39),34,37-hexadecaen-3-yl}acetic acid]",–,1140 nM,–
"C=C1COc2cc(F)ccc2-c2cccc(c2)-c2cc3nc(C)c([C@H](OC(C)(C)C)C(=O)O)c(n3n2)-c2ccc(F)cc2OC1 [Example 19, (2S)-2-(tert-butoxy)-2-{13,23-difluoro-7-methyl-18-methylidene-16,20-dioxa-3,4,6-triazahexacyclo[25.3.1.1^2,5.0^4,9.0^10,15.0^21,26]dotriaconta-1(31),2,5(32),6,8,10,12,14,21(26),22,24,27,29-tridecaen-8-yl}acetic acid]",–,3590 nM,–
"Cc1ccc2c(c1)OCCCCCOc1cc(F)ccc1-c1cccc(c1)-c1cc3nc(C)c([C@H](OC(C)(C)C)C(=O)O)c-2n3n1 [Example 20, (2S)-2-(tert-butoxy)-2-{25-fluoro-7, 13-dimethyl-16, 22-dioxa-3,4,6-triazahexacyclo[27.3.1.1^2,5.0^4,9.0^10,15.0^23,28]tetratriaconta-1(33),2,5(34),6,8,10,12,14, 23(28),24,26,29,31-tridecaen-8-yl}acetic acid]",–,2780 nM,–
"Cc1nc2cc3nn2c(c1[C@H](OC(C)(C)C)C(=O)O)-c1ccc2c(c1)C(CCO2)OCCCCCOc1cc(F)ccc1-c1cccc-3c1 (stereo partly drawn) [Example 21, (2S)-2-(tert-Butoxy)-2-{18-fluoro-4-methyl-21,27,31-trioxa-5,7,8-triazaheptacyclo[26.6.2.1^6,9.1^10,14.0^2,7.0^15,20.0^32,36]octatriaconta-1(34),2,4,6(38),8,10(37),11,13,15(20),16,18,32,35-tridecaen-3-yl}acetic acid]",–,695 nM,–
"Cc1nc2cc3nn2c(c1[C@H](OC(C)(C)C)C(=O)O)-c1ccc2c(c1)C(CCO2)OCCCCCCOc1cc(F)ccc1-c1cccc-3c1 (stereo partly drawn) [Example 22, (2S)-2-(tert-butoxy)-2-{18-fluoro-4-methyl-21,28,32-trioxa-5,7,8-triazaheptacyclo[27.6.2.1^6,9.1^10,14.0^2,7.0^15,20.0^33,37]nonatriaconta-1(35),2,4,6(39),8,10(38),11,13,15(20),16,18,33,36-tridecaen-3-yl}acetic acid]",–,1440 nM,–
"Cc1nc2cc3nn2c(c1[C@H](OC(C)(C)C)C(=O)O)-c1ccc2c(c1)C(CCO2)OCc1cccc(c1)COc1cc(F)ccc1-c1cccc-3c1 (stereo partly drawn) [Example 23, (2S)-2-(tert-butoxy)-2-{18-fluoro-4-methyl-21, 29, 33-trioxa-5,7,8-triazaoctacyclo[28.6.2.1^6,9.1^10,14.1^23,27.0^2,7.0^15,20.0^34,38]hentetraconta-1(36),2,4,6(41),8,10(40),11,13,15(20),16,18, 23, 25, 27(39),34,37-hexadecaen-3-yl}acetic acid]",–,123 nM,7.2%
"Cc1nc2cc3nn2c(c1[C@H](OC(C)(C)C)C(=O)O)N1CCC(C)(CC1)OCCOCCOc1cc(F)ccc1-c1cccc-3c1 [Example 24, (2S)-2-(tert-Butoxy)-2-{18-fluoro-4,28-dimethyl-21, 24, 27-trioxa-1,5,7,8-tetraazahexacyclo[26.2.2.1^6,9.1^10,14.0^2,7.0^15,20]tetratriaconta-2,4,6(34),8,10(33),11,13,15(20),16,18-decaen-3-yl}acetic acid]",–,6 nM,–
"Cc1nc2cc3nn2c(c1[C@H](OC(C)(C)C)C(=O)O)N1CCC(C)(CC1)OCCCC[C@H](C)Oc1ccc(C(=O)NCCc2ccc(F)cc2)cc1-c1cccc-3c1 [Example 25, (2S)-2-(tert-Butoxy)-2-[(22S)-17-{[2-(4-fluorophenyl)ethyl]carbamoyl}-4,22,28-trimethyl-21,27-dioxa-1,5,7,8-tetraazahexacyclo[26.2.2.1^6,9.1^10,14.0^2,7.0^15,20]tetratriaconta-2,4,6(34),8,10(33),11,13,15(20),16,18-decaen-3-yl]acetic acid]",–,4 nM,–
"Cc1nc2cc3nn2c(c1[C@H](OC(C)(C)C)C(=O)O)N1CCC(C)(CC1)OCCCC[C@H](C)Oc1ccc(C(=O)N(C)CCc2ccc(F)cc2)cc1-c1cccc-3c1 [Example 26, (2S)-2-(tert-Butoxy)-2-[(22S)-17-{[2-(4-fluorophenyl)ethyl](methyl)carbamoyl}-4, 22, 28-trimethyl-21, 27-dioxa-1,5,7,8-tetraazahexacyclo[26.2.2.1^6,9.1^10,14.0^2,7.0^15,20]tetratriaconta-2,4,6(34),8,10(33),11,13,15(20),16,18-decaen-3-yl]acetic acid]",–,3 nM,–
